From article PMC10344917, “Affinity and cooperativity modulate ternary complex formation to drive targeted protein degradation” (Nature Communications, 2023)
Like-named read-outs stand apart in the source and are kept apart here.

How the values were obtained:
SMARCA2^BD = target: T1, SMARCA2^BD (Homo sapiens, UniProt P51531); assay: SPR binary binding of PROTAC to SMARCA2-functionalized surface; details: 1:1 Langmuir binding model, SEM N=3 or SD N=2, read-out: KTP (binary affinity PROTAC / SMARCA2)
T1 construct: SMARCA2^BD 1373–1511 ∆1400–1417; made in house
Protocol: PROTACs (10 mM stocks in 100% DMSO) were diluted to 400 nM in a running buffer (20 mM Tris pH 7.5, 200 mM NaCl, 0.02% P20). This stock solution was then serially diluted in the running buffer containing final 2% DMSO. Solutions were injected in multi-cycle kinetic format without regeneration (contact time 60 s, flow rate 80 μL/min, dissociation time 120 s) using a stabilization period of 30 s and syringe wash (50% DMSO) between injections onto a high-density VBC-functionalized surface. For SMARCA2 analysis, biotinylated proteins were introduced on a Series S streptavidin (SA) sensor chip at high-density (3000-4000 RU).
(§1) Raw sensorgrams were processed by performing double reference subtraction, solvent correction, and analysis was done using Biacore Insight Evaluation Software. Kinetic analysis was performed by fitting data to a 1:1 Langmuir interaction model and a steady-state affinity model was used to evaluate equilibrium binding affinity.

SMARCA2-NanoLuc = target: T2, SMARCA2-NanoLuc (Homo sapiens, UniProt P51531); assay: NanoBRET target engagement assay, live and permeabilized HEK293 cells (SMARCA2); format: cell-based; details: SMARCA2 NanoBRET TE
T2 construct: expressed in transfected cells; host or cells: HEK293
Protocol: We employed a NanoBRET-based target engagement (TE) assay as reported earlier^7 for evaluating PROTACs relative permeability. In summary, live and permeabilized HEK293 cells with SMARCA2 or BRD4-NanoLuc were used for measuring IC50 values of different PROTACs. The relative shift in the IC50 was evaluated as relative binding affinity (RBA) by taking the ratio of IC50 values of live and permeabilized cells. Availability index (AI), which is a surrogate for permeability can be calculated by taking a ratio of RBA of compounds to permeable benchmark molecules. We used SMARCA bromodomain binding ligand^8 for SMARCA2 PROTACs and JQ1^9, 10 for BRD4 PROTACs as benchmark molecules.
Relative Binding Affinity (RBA) = Live-cell TE IC50 / Permeabilized-cell TE IC50
Availability Index (AI) = RBAtest cmpd / RBApermeable benchmark
Availability Index (AI) greater than one is indicative of reduced permeability compared to the benchmark.

SMARCA2 = target: T3, SMARCA2 (Homo sapiens, UniProt P51531); assay: SMARCA2 degradation time course in A375 cells (MSD); format: cell-based; details: single concentration at or near maximal activity
T3 construct: endogenous in cells; host or cells: A375
Excerpt: This characteristic has been described as cooperativity (α > 1) and likely results from favorable PPIs present in the ternary complex. […] To measure the rate of protein degradation, we treated A375 cells with a single concentration of each PROTAC and measured the decrease in target abundance over time as shown in Figs. 4b and5b.
MSD electrochemiluminescence signals were subtracted by the average background signal from wells with lysis buffer alone. Normalized MSD values (POC) for individual compound treated wells were acquired by dividing background-subtracted assay signal by signal from vehicle control wells (cells + 0.1% DMSO) and multiplying by 100. This POC data was graphed using a nonlinear regression curve fit xy analysis and a log(inhibitor) vs response —variable slope (four parameter) model for dose response curves (Graphpad Prism 9, San Diego, CA, USA). To calculate area under the curve, all points on the curve were connected and vertical lines were drawn from each point down to y = 0, generating a series of trapezoids. The area of each trapezoid was determined using the equation A = (1/2)(h)(b1 + b2), where h = 1 (distance between points), b1 = POC of the first point and b2 = POC of the second point. The sum of all trapezoids provides an approximate area under the curve (AUC). For half-life (t1/2) determination in time course studies, a one-phase decay model was used for curve fitting and the time at which the curve crossed 50 POC was determined through interpolation (Graphpad Prism 9, San Diego, CA, USA). Additionally initial rate of degradation was determined by multiplying 100 with rate constant (τ = 0.693/t1/2).

VHL/EloB/EloC (VBC) = target: T4, VHL/EloB/EloC (VBC) (Homo sapiens, UniProt P40337); assay: SPR binary binding of PROTAC to VBC-functionalized surface; details: SPR; error SEM, N = 3; read-out: KLP (binary binding affinity between E3 ligase VHL and PROTAC)
T4 construct: VHL (54-213), ElonginB (17-112) ElonginC (1-104); made in house
Protocol: (§2) SPR experiments were performed on a Biacore 8 K or T200 instrument (Cytiva). […] The running buffer during immobilization was PBS with 0.005% P20. Either high-density (3000-4000 RU) or low-density (300-400 RU) VBC-functionalized surfaces were created, followed by equilibration in the running buffer for 3 h.
PROTACs (10 mM stocks in 100% DMSO) were diluted to 400 nM in a running buffer (20 mM Tris pH 7.5, 200 mM NaCl, 0.02% P20). This stock solution was then serially diluted in the running buffer containing final 2% DMSO. […] For SMARCA2 analysis, biotinylated proteins were introduced on a Series S streptavidin (SA) sensor chip at high-density (3000-4000 RU).
as §1

[1] = target: T5, VBC / SMARCA2^BD ternary complex (Homo sapiens, UniProt P40337+P51531); assay: SPR ternary complex binding, VBC surface with preformed PROTAC/SMARCA2 bromodomain complex; details: for Kd: SPR, VHL, PROTAC, error SEM, N = 3, read-out: KLPT (ternary complex binding affinity)
T5 construct: VHL (54-213), ElonginB (17-112) ElonginC (1-104); SMARCA2^BD 1373–1511 ∆1400–1417; His6 (N, cleaved yes); made in house
Protocol: as §2
PROTACs (10 mM in 100% DMSO) were initially prepared at 200 nM in a running buffer (20 mM Tris pH 8.0, 250 mM NaCl, 1 mM TCEP, 0.01% P20, 0.2 mg/ml BSA) with a concentration of 2% DMSO. This solution was mixed at 1:1 ratio with a solution of 5 μM of the SMARCA2 or BRD4 bromodomain protein in the running buffer. This complex was then serially diluted in the running buffer containing 2.5 μM SMARCA2 or BRD4 and 2% DMSO (5-point five-fold serial dilution). For ternary experiments, solutions were injected sequentially in single-cycle kinetic format without regeneration (contact time 60 s, flow rate 80 μL/min, dissociation time 300 s) using a stabilization period of 60 s and syringe wash (50% DMSO) between injections onto a low-density VBC-functionalized surface.
as §1

[2] = live HEK293 cells, read-out: Live-Cell TE IC50
[3] = permeabilized HEK293 cells, read-out: Permeabilized-Cell TE IC50

T3 sequence (P51531 whole entry): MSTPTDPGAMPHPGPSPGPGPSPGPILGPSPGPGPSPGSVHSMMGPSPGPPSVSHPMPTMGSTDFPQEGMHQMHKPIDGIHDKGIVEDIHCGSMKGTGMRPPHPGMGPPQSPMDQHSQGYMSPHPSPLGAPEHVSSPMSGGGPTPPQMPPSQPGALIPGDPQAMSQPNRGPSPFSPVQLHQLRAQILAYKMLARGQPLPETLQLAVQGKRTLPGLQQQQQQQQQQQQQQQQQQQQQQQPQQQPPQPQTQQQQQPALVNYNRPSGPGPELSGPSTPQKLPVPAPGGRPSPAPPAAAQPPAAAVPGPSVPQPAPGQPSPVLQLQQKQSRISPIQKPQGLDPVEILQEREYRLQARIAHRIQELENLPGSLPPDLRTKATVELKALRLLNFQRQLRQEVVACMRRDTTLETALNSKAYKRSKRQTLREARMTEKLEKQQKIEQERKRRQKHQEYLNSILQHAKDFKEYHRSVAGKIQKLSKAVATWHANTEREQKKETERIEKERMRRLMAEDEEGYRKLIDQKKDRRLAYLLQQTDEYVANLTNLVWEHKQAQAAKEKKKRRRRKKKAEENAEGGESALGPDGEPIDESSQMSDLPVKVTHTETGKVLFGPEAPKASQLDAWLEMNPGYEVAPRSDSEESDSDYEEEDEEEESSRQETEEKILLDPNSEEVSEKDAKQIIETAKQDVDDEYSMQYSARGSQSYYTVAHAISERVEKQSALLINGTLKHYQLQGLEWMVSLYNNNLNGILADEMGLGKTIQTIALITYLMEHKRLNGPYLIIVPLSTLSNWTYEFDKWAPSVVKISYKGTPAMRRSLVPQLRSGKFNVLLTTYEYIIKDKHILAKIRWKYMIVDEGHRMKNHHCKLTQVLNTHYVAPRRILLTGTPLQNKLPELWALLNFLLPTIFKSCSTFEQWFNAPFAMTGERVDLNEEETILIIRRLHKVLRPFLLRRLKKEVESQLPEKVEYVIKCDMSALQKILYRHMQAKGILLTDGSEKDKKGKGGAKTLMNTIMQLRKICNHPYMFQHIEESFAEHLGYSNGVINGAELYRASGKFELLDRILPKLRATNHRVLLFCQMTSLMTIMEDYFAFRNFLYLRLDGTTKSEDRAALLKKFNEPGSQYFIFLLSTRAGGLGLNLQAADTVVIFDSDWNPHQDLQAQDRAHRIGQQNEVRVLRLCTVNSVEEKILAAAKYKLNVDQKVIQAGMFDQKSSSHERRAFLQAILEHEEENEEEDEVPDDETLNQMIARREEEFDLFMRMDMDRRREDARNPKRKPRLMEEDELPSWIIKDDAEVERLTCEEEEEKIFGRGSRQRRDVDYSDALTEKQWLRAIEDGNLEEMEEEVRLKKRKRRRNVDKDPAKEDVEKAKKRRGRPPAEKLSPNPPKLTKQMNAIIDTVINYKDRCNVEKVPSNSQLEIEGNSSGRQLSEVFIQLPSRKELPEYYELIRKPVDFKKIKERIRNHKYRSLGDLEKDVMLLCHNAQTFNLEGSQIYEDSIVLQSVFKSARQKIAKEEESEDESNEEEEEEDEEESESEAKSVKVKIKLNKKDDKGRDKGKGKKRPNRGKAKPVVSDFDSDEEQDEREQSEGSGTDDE
T2 sequence (P51531 whole entry): as above
T4 sequence (Q15369 17-112): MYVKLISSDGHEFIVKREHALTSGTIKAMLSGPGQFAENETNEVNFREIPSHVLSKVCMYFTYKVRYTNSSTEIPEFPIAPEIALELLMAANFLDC
T4 sequence (Q15370 1-104, further chain): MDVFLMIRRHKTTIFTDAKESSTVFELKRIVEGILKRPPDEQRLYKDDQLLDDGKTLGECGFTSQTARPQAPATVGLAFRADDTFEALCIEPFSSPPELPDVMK
T4 sequence (P40337 54-213): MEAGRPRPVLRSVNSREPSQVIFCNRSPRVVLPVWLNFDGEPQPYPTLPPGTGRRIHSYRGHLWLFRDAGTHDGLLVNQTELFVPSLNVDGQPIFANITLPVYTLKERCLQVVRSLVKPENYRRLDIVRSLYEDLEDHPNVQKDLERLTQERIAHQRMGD
T1 sequence (P51531 1373-1493 isoform P51531-2): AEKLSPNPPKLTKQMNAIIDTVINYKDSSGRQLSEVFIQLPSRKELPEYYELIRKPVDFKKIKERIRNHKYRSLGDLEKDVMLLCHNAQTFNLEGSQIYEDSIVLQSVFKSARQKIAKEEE
T5 sequence (P40337 54-213): as the sequence (P40337 54-213) above
T5 sequence (P51531 other isoform, or with tags, fused parts or gaps): as the sequence (P51531 1373-1493 isoform P51531-2) above
T5 sequence (Q15370 1-104, further chain): as the sequence (Q15370 1-104, further chain) above
T5 sequence (Q15369 17-112, further chain): as the sequence (Q15369 17-112) above

Kd (SMARCA2^BD)	IC50 (SMARCA2-NanoLuc; [2])	IC50 (SMARCA2-NanoLuc; [3])	Initial Degradation Rate (SMARCA2)	Kd (VHL/EloB/EloC (VBC))	α (cooperativity, KLP/KLPT) [1]	Kd [1]	Compound
302 ± 80 nM	980 nM	740 nM	0.25 %/min	59 ± 5 nM	0.55	108 ± 14 nM	Cc1ncsc1-c1ccc(CNC(=O)C2C[C@@H](O)CN2C(=O)C(NC(=O)C2(F)CC2)C(C)(C)C)c(OCCc2ccc(CN3CCN(c4cc(-c5ccccc5O)nnc4N)CC3)cc2)c1 (stereo in doubt) [Compound 11, (2R,4R)-N-(2-(4-((4-(3-amino-6-(2-hydroxyphenyl)pyridazin-4-yl)piperazin-1-yl)methyl)phenethoxy)-4-(4-methylthiazol-5-yl)benzyl)-1-((R)-2-(1-fluorocyclopropane-1-carboxamido)-3,3-dimethylbutanoyl)-4-hydroxypyrrolidine-2-carboxamide, reference compound]
95 ± 25.5 nM	200 nM	150 nM	1.9 %/min	60 ± 3 nM	12.8	4.7 ± 1 nM	Cc1ncsc1-c1ccc([C@H](C)NC(=O)[C@@H]2C[C@@H](O)CN2C(=O)[C@@H](NC(=O)c2ccnc(N3CCN(c4cc(-c5ccccc5O)nnc4N)CC3)c2)C(C)(C)C)cc1 [Compound 1, 2-(4-(3-Amino-6-(2-hydroxyphenyl)pyridazin-4-yl)piperazin-1-yl)-N-((S)-1-((2S,4R)-4-hydroxy-2-(((S)-1-(4-(4-methylthiazol-5-yl)phenyl)ethyl)carbamoyl)pyrrolidin-1-yl)-3,3-dimethyl-1-oxobutan-2-yl)isonicotinamide]
196 ± 23 nM	400 nM	200 nM	2.02 %/min	210 ± 18 nM	6.5	33 ± 4 nM	Cc1ncsc1-c1ccc([C@H](C)NC(=O)[C@@H]2C[C@@H](O)CN2C(=O)[C@@H](NC(=O)c2cccc(N3CCN(c4cc(-c5ccccc5O)nnc4N)CC3)n2)C(C)(C)C)cc1 [Compound 2, 6-(4-(3-Amino-6-(2-hydroxyphenyl)pyridazin-4-yl)piperazin-1-yl)-N-((S)-1-((2S,4R)-4-hydroxy-2-(((S)-1-(4-(4-methylthiazol-5-yl)phenyl)ethyl)carbamoyl)pyrrolidin-1-yl)-3,3-dimethyl-1-oxobutan-2-yl)picolinamide]
232 ± 35 nM	820 nM	750 nM	2.06 %/min	166 ± 15 nM	2.6	64 ± 7 nM	Cc1ncsc1-c1ccc([C@H](C)NC(=O)[C@@H]2C[C@@H](O)CN2C(=O)[C@@H](NC(=O)c2cccc(N3CCN(c4cc(-c5ccccc5O)nnc4N)CC3)c2)C(C)(C)C)cc1 [Compound 4, (2S,4R)-1-((S)-2-(3-(4-(3-Amino-6-(2-hydroxyphenyl)pyridazin-4-yl)piperazin-1-yl)benzamido)-3,3-dimethylbutanoyl)-4-hydroxy-N-((S)-1-(4-(4-methylthiazol-5-yl)phenyl)ethyl)pyrrolidine-2-carboxamide]
206 ± 34 nM	1260 nM	400 nM	1.9 %/min	84.7 ± 5 nM	1.8	46.8 ± 6.7 nM	Cc1ncsc1-c1ccc([C@H](C)NC(=O)[C@@H]2C[C@@H](O)CN2C(=O)[C@@H](NC(=O)c2csc(N3CCN(c4cc(-c5ccccc5O)nnc4N)CC3)n2)C(C)(C)C)cc1 [Compound 5, 2-(4-(3-Amino-6-(2-hydroxyphenyl)pyridazin-4-yl)piperazin-1-yl)-N-((S)-1-((2S,4R)-4-hydroxy-2-(((S)-1-(4-(4-methylthiazol-5-yl)phenyl)ethyl)carbamoyl)pyrrolidin-1-yl)-3,3-dimethyl-1-oxobutan-2-yl)thiazole-4-carboxamide]
14.2 ± 1.6 nM	1410 nM	90 nM	3.5 %/min	11 ± 1 nM	2	5.6 ± 2 nM	Cc1ncsc1-c1ccc([C@H](C)NC(=O)[C@@H]2C[C@@H](O)CN2C(=O)[C@@H](NC(=O)CN2CCN(c3cc(-c4ccccc4O)nnc3N)CC2)C(C)(C)C)cc1 [Compound 6, (2S,4R)-1-((S)-2-(2-(4-(3-Amino-6-(2-hydroxyphenyl)pyridazin-4-yl)piperazin-1-yl)acetamido)-3,3-dimethylbutanoyl)-4-hydroxy-N-((S)-1-(4-(4-methylthiazol-5-yl)phenyl)ethyl)pyrrolidine-2-carboxamide, reference compound]
46 ± 8.5 nM	690 nM	210 nM	0.78 %/min	9 ± 2 nM	0.11	80 ± 6 nM	Cc1ncsc1-c1ccc([C@H](C)NC(=O)[C@@H]2C[C@@H](O)CN2C(=O)[C@@H](NC(=O)Cc2ccnc(N3CCN(c4cc(-c5ccccc5O)nnc4N)CC3)c2)C(C)(C)C)cc1 [Compound 7, (2S,4R)-1-((S)-2-(2-(2-(4-(3-Amino-6-(2-hydroxyphenyl)pyridazin-4-yl)piperazin-1-yl)pyridin-4-yl)acetamido)-3,3-dimethylbutanoyl)-4-hydroxy-N-((S)-1-(4-(4-methylthiazol-5-yl)phenyl)ethyl)pyrrolidine-2-carboxamide]
